{
  "source": "patent US20240165135A1",
  "about": "“COMPOSITIONS AND METHODS FOR THE TREATMENT OF CANCER” (The State of Israel, Ministry of Agriculture & Rural …, priority 2021, published 2024)",
  "type_in_all_cases": "cell-based, Human",
  "key": {"U87 GBM cells": {"tested_on": "U87 GBM cells", "experiment": "XTT cell viability assay on U87", "conditions": "48 hours; Doxorubicin up to 50 μg/mL", "description": "Cell cultures—Human glioblastoma A172 (ATCC®CRL-1620™) was cultured in DMEM (01-055-1A, Biological Industries, Israel) and U87MG (U87; ATCC®HTB-14™) in EMEM (01-058-1A; Biological Industries, Israel). Both media were supplemented with 10% fetal bovine serum (FBS, 04-127-1A, Biological Industries, Israel), 1% Pen-Strep, 1% L-Glutamine and 0.02% plasmocin (i.e., complete medium). Cells were incubated at 37° C. in a humidified atmosphere containing 5% CO2—95% air. Serum free media (SFM) was composed of DMEM/F12 (01-170-1A; Biological Industries, Israel), including all the supplements above except for FBS. Neurosphere media for A172 was composed of SFM with 2% B-27; Neurosphere media for U87 was serum-free EMEM without B27. For Glioblastoma stem cells (GSCs) cultures all human materials were used in accordance with the policies of the Henry Ford Hospital Institutional Review Board. Generation of GSCs from fresh GBM specimens and their characterization have been recently described. […]\nCell viability assays—Cells were seeded in 96-well plates at density of 2×10^4 per well (100 μL/well) in SFM (for A172) or complete medium (for U87) and were incubated at 37° C. overnight to allow attachment. […] Absorbance was recorded by a Synergy H1 hybrid reader photometer (BioTek) at 490 nm with 650 nm of reference wavelength. […]"}, "A172 cells [1]": {"tested_on": "A172 cells", "experiment": "Apoptosis assay, Annexin V-FITC and PI, FACS, A172", "conditions": "48 hours, F4-SM 10 μg/mL, F5-SM 10 μg/mL, Doxo 0.5 μg/mL", "description": "Apoptosis assay—Apoptosis for the A172 cell line was assessed using MEBCYTO Apoptosis Kit with Annexin V-FITC and PI (MBL, Enco, 4700). Staining was carried out according to manufacturer's instructions. In brief, cells were seeded in a 6-well TC plate, at a density of 4×10^5 cells in 2 mL of SFM per well. 24 hours following seeding, cells were treated with the indicated treatments in complete medium for 48 hours. Following incubation, cells were harvested using trypsin and centrifuged for 5 minutes at 1600 rpm. Cell pellets were resuspended and washed twice with 1 mL of PBS. The cells in each sample were resuspended in 85 μL of Annexin binding buffer. Cells were stained using 10 μL of Annexin V-FITC solution and 5 μL of propidium iodide (PI) working solution followed by incubation in the dark at room temperature for 15 minutes. Then 400 μL of Annexin V binding buffer was added to each tube and flow cytometry was performed using a Gallios flow cytometer (FACS). Cells were considered apoptotic if they were Annexin V+/PI− (early apoptosis) or Annexin V+/PI+ (late apoptosis). Live cells were defined as Annexin V−/PI−, and Annexin V−/PI+ as necrosis."}, "A172 cells [2]": {"tested_on": "A172 cells", "experiment": "Transwell assay, A172 cell invasion", "conditions": "24 hours; F4 12 μg/mL, F5 10 μg/mL, Doxo 0.5 μg/mL", "description": "Transwell assay—Cells were seeded in the upper chamber of a 24-well plate containing insert with an 8-μm pore size membrane (BD, Falcon Cat #353097), at a density of 5×10^4 in 250 μL complete medium and were incubated at 37° C. for 60 minutes to recover. Following, cells were treated and incubated for 24 hours followed by viability test with resazurin (AR002, R&D Systems, USA). The inserts were taken out of the medium, the inner part was wiped using a cotton swab to remove the detached cells. The inserts were transferred into a new 24-well plate, fixated using 70% ethanol for 10 minutes and dried for 50 minutes, followed by staining in 400 μL of 0.2% crystal violet, washing with PBS, and drying for 5 minutes. Cells stained underneath the membrane were counted in inverted microscope in 3-5 different fields."}, "A172 cells [3]": {"tested_on": "A172 cells", "experiment": "Scratch-wound assay, A172 cell migration", "conditions": "36 hours; F4 20, F4-SM 11.5, F5 20, F5-SM 11.5, Doxo 0.5 μg/mL", "description": "Scratch-wound assay—A172 cells were seeded in a 96-well plate at a density of 2×10^4 per well in 100 μL of complete medium. Following 24 hours, cells in each well were scratched perpendicularly across the center of the well with a 200 μL pipette tip to produce a cell-free area for investigating the ability of the cells to migrate and close the gap under different treatments. Immediately following scratching, 100 μL of treatment solution was added. Photos were taken by a CARL ZEISS inverted microscope coupled with a camera at 0, 14, 20, and 36 hours following scratching, and the gap area was measured using ImageJ (version 1.53a). The scratch area, indicated by cells migrated into the scratch was calculated as percent of scratch area at time x from time 0: […]"}},
  "data": [
    {"smiles": "COc1cccc2c1C(=O)c1c(O)c3c(c(O)c1C2=O)C[C@@](O)(C(=O)CO)C[C@@H]3O[C@H]1C[C@H](N)[C@H](O)[C@H](C)O1", "note": "[Doxorubicin]", "values": [
      {"measurement": "activity on the U87 cell line", "setting": "U87 GBM cells", "result": "only moderately active on this cell line"},
      {"measurement": "necrotic cells", "setting": "A172 cells [1]; methanol control 3.4%", "result": 23.8, "unit": "%"},
      {"measurement": "cell apoptosis", "setting": "A172 cells [1]; vehicle control 8.0%", "result": 60.6, "unit": "%"},
      {"measurement": "reduction of cell invasion relative to vehicle control", "setting": "A172 cells [2]", "result": 22.5, "unit": "%"},
      {"measurement": "inhibition of cell migration in comparison to the vehicle control", "setting": "A172 cells [3]", "result": 28.8, "unit": "%"}
    ]}
  ]
}
